Literature values as cited in PMC7395068, “The evolution of strategies to minimise the risk of human drug-induced liver injury (DILI) in drug discovery and development” (Archives of Toxicology, 2020).
Where two headings read alike, the source gives them in different places.

Legend:
[1] = tested on: THLE or HepG2 cells, isolated mitochondria, BSEP; details: cited from earlier work
[2] = cited from earlier work
[3] = cited from earlier work; remark: listed apart in the source
[4] = tested on: primary human hepatocytes, NIH3T3 fibroblasts, BSEP, CYP3A4; details: cited from earlier work
[5] = In vitro Assay, ref Schadt 2015

## CCCNS(=O)(=O)Nc1ncnc(OCCOc2ncc(Br)cn2)c1-c1ccc(Br)cc1 [macitentan]
[1]; In vitro Assay, ref Aleo 2019
  Partition Hybrid HRM Score: +VE
  Ro2 Hybrid HRM Score: +VE
[2]; ref Aleo 2019
  In vivo DILI: +VE

## COCCc1ccc(OCC(O)CNC(C)C)cc1 (stereo not drawn) [metoprolol]
[1]; In vitro Assay, ref Aleo 2019
  Partition Hybrid HRM Score: +VE
  Ro2 Hybrid HRM Score: -VE

## Cc1ncc2n1-c1ccc(Cl)cc1C(c1ccccc1F)=NC2 [midazolam]
[3]; ref Chen 2016
  DILI +VE (5-8), DILI -VE (-4): -VE
  DILI severity category: vNo-DILI-Concern
[4]
  Cellular toxicity (3T3 cells): -VE
  Combined Assay: +VE
  GSH adduct HML: +VE
  Hepatocyte cellular toxicity: +VE
  MitoTox 3T3: +VE
  TDI CYP3A4: -VE
  hBSEP inhibition: +VE
[2]; ref Schadt 2015
  In vivo DILI: -VE

## OC(CNCC(O)C1CCc2cc(F)ccc2O1)C1CCc2cc(F)ccc2O1 (stereo not drawn) [nebivolol]
[3]; ref Chen 2016
  DILI +VE (5-8), DILI -VE (-4): -VE
  DILI severity category: Ambiguous DILI-concern
[4]; [5]
  Cellular toxicity (3T3 cells): -VE
  Combined Assay: -VE
  GSH adduct HML: -VE
  Hepatocyte cellular toxicity: -VE
  MitoTox 3T3: -VE
  TDI CYP3A4: -VE
  hBSEP inhibition: -VE
[2]; ref Schadt 2015
  In vivo DILI: -VE

## CCCc1nc(C(C)(C)O)c(C(=O)O)n1Cc1ccc(-c2ccccc2-c2nnn[nH]2)cc1 [olmesartan]
[3]; ref Chen 2016
  DILI +VE (5-8), DILI -VE (-4): -VE
  DILI severity category: Ambiguous DILI-concern
[4]; [5]
  Cellular toxicity (3T3 cells): -VE
  Combined Assay: -VE
  GSH adduct HML: -VE
  Hepatocyte cellular toxicity: -VE
  MitoTox 3T3: -VE
  TDI CYP3A4: -VE
  hBSEP inhibition: -VE
[2]; […]
  In vivo DILI: -VE
[2]; ref Schadt 2015
  In vivo DILI: -VE

## Cc1nc2n(c(=O)c1CCN1CCC(c3noc4cc(F)ccc34)CC1)CCCC2O (stereo not drawn) [paliperidone]
[3]; ref Chen 2016
  DILI +VE (5-8), DILI -VE (-4): -VE
  DILI severity category: vNo-DILI-Concern
[1]; In vitro Assay, ref Aleo 2019
  Partition Hybrid HRM Score: -VE
  Ro2 Hybrid HRM Score: -VE
[2]; ref Aleo 2019
  In vivo DILI: -VE

## Cn1c(=O)c2[nH]c(Br)nc2n(C)c1=O [pamabrom]
[3]; ref Chen 2016
  DILI +VE (5-8), DILI -VE (-4): -VE
  DILI severity category: vNo-DILI-Concern
[1]; In vitro Assay, ref Aleo 2019
  Partition Hybrid HRM Score: -VE
  Ro2 Hybrid HRM Score: -VE
[2]; ref Aleo 2019
  In vivo DILI: -VE

## Cc1ccc(Nc2nccc(N(C)c3ccc4c(C)n(C)nc4c3)n2)cc1S(N)(=O)=O [pazopanib]
[1]; In vitro Assay, ref Aleo 2019
  Partition Hybrid HRM Score: +VE
  Ro2 Hybrid HRM Score: +VE

## CC(C(=O)O)c1ccc(N2CC=CC2)c(Cl)c1 (stereo not drawn) [pirprofen]
[3]; ref Chen 2016
  DILI +VE (5-8), DILI -VE (-4): +VE
  DILI severity category: vMost-DILI-Concern
[1]; In vitro Assay, ref Aleo 2019
  Partition Hybrid HRM Score: +VE
  Ro2 Hybrid HRM Score: -VE
[2]; […]
  In vivo DILI: +VE
[2]; ref Aleo 2019
  In vivo DILI: +VE

## CNCCCC1c2ccccc2C=Cc2ccccc21 [protriptyline]
[3]; ref Chen 2016
  DILI +VE (5-8), DILI -VE (-4): -VE
  DILI severity category: vNo-DILI-Concern
[4]; [5]
  Cellular toxicity (3T3 cells): -VE
  Combined Assay: +VE
  GSH adduct HML: -VE
  Hepatocyte cellular toxicity: -VE
  MitoTox 3T3: +VE
  TDI CYP3A4: -VE
  hBSEP inhibition: -VE
[1]; In vitro Assay, ref Aleo 2019
  Partition Hybrid HRM Score: -VE
  Ro2 Hybrid HRM Score: -VE
[2]; ref Aleo 2019
  In vivo DILI: -VE
[2]; ref Schadt 2015
  In vivo DILI: -VE

## COc1ccccc1OCC(O)CN1CCN(CC(=O)Nc2c(C)cccc2C)CC1 (stereo not drawn) [ranolazine]
[3]; ref Chen 2016
  DILI +VE (5-8), DILI -VE (-4): -VE
  DILI severity category: vNo-DILI-Concern
[4]
  Cellular toxicity (3T3 cells): -VE
  Combined Assay: +VE
  GSH adduct HML: -VE
  Hepatocyte cellular toxicity: -VE
  MitoTox 3T3: +VE
  TDI CYP3A4: -VE
  hBSEP inhibition: -VE
[2]; ref Schadt 2015
  In vivo DILI: -VE

## CCOc1ccccc1OCCN[C@H](C)Cc1ccc(OC)c(S(N)(=O)=O)c1 [tamsulosin]
[3]; ref Chen 2016
  DILI +VE (5-8), DILI -VE (-4): +VE
  DILI severity category: vLess-DILI-Concern
[4]; [5]
  Cellular toxicity (3T3 cells): -VE
  Combined Assay: -VE
  GSH adduct HML: -VE
  Hepatocyte cellular toxicity: -VE
  MitoTox 3T3: -VE
  TDI CYP3A4: -VE
  hBSEP inhibition: -VE
[1]; In vitro Assay, ref Aleo 2019
  Partition Hybrid HRM Score: -VE
  Ro2 Hybrid HRM Score: -VE
[2]; ref Aleo 2019
  In vivo DILI: +VE
[2]; ref Schadt 2015
  In vivo DILI: -VE

## Cc1nc(C)c2c(n1)N(Cc1ccc(-c3ccccc3-c3nnn[nH]3)cc1)C(=O)CC2 [tasosartan]
[4]; [5]
  Cellular toxicity (3T3 cells): -VE
  Combined Assay: +VE
  GSH adduct HML: -VE
  Hepatocyte cellular toxicity: +VE
  MitoTox 3T3: -VE
  TDI CYP3A4: -VE
  hBSEP inhibition: +VE
[1]; In vitro Assay, ref Aleo 2019
  Partition Hybrid HRM Score: +VE
  Ro2 Hybrid HRM Score: +VE

## O=C(O)COc1ccc(C(=O)c2cccs2)c(Cl)c1Cl [ticrynafen]
[1]; In vitro Assay, ref Aleo 2019
  Partition Hybrid HRM Score: +VE
  Ro2 Hybrid HRM Score: +VE
[2]; ref Aleo 2019
  In vivo DILI: +VE

## OC(CCN1CCCCC1)(c1ccccc1)C1CCCCC1 (stereo not drawn) [trihexyphenidyl]
[3]; ref Chen 2016
  DILI +VE (5-8), DILI -VE (-4): -VE
  DILI severity category: vNo-DILI-Concern
[1]; In vitro Assay, ref Aleo 2019
  Partition Hybrid HRM Score: -VE
  Ro2 Hybrid HRM Score: -VE
[2]; ref Aleo 2019
  In vivo DILI: -VE

## Cc1ccc(/C(=C\CN2CCCC2)c2ccccn2)cc1 [triprolidine]
[1]; In vitro Assay, ref Aleo 2019
  Partition Hybrid HRM Score: -VE
  Ro2 Hybrid HRM Score: -VE

## CCCCC(=O)N(Cc1ccc(-c2ccccc2-c2nnn[nH]2)cc1)[C@H](C(=O)O)C(C)C [valsartan]
[3]; in vivo
  DILI +VE (5-8), DILI -VE (-4): +VE
  DILI severity category: vLess-DILI-Concern
[1]
  Ro2 Hybrid HRM Score: +VE

## Cc1ccc(-c2nc3ccc(C)cn3c2CC(=O)N(C)C)cc1 [zolpidem]
[3]; ref Chen 2016
  DILI +VE (5-8), DILI -VE (-4): -VE
  DILI severity category: Ambiguous DILI-concern
[4]
  Cellular toxicity (3T3 cells): -VE
  Combined Assay: -VE
  GSH adduct HML: -VE
  Hepatocyte cellular toxicity: -VE
  MitoTox 3T3: -VE
  TDI CYP3A4: -VE
  hBSEP inhibition: -VE
[2]; […]
  In vivo DILI: -VE
[2]; ref Schadt 2015
  In vivo DILI: -VE
